According to publication PMC11391452, “Fruits from Rosa roxburghii: A Valuable Bioresource of Potent Radical Scavengers and Novel Ursane-Type Triterpenoids” (ACS Omega, 2024):
Entries after “also recorded” stand apart in the source; their conditions may differ.

Key:
COX-2 = target: T1, COX-2 (Ovis aries, UniProt P79208); experiment: COX (ovine) colorimetric inhibitor screening assay, COX-2; type: biochemical; conditions: for COX-2 inhibition, in words: in comparison to acetaminophen, Figure 3 A
T1 construct: purchased Cayman 760110
T1 sequence (P79208 17-603): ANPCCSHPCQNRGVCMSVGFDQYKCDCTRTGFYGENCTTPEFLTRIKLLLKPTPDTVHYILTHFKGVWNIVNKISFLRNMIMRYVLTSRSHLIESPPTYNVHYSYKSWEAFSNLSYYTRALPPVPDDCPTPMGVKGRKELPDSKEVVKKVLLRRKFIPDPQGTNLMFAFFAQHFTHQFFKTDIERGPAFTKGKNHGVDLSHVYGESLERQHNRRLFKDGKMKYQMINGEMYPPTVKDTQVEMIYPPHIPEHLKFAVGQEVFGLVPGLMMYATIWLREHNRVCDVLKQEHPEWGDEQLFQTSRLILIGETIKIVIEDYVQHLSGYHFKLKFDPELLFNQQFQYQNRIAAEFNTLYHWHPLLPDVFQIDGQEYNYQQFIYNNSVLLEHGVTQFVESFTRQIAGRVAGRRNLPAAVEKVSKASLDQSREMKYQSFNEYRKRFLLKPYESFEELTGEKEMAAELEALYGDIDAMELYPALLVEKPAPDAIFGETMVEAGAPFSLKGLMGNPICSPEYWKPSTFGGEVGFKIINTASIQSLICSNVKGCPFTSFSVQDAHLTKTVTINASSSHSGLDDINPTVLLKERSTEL
Description: (§1) Each compound was assayed in triplicate, and GraphPad Prism 8 software was used to calculate EC50 values. All statistical analyses were performed by Microsoft Excel.

[1] = DPPH radical scavenging capacity assay; conditions: for free radical scavenging effect in comparison to ascorbic acid, in words: DPPH assay; for EC50 / DPPH EC50: pure compounds, 30 min, 517 nm, ascorbic acid positive control
Description: The DPPH radical scavenging capacity assay was performed according to a previously described method with slight modifications.[34] Briefly, the tested compounds or extracts were dissolved in a small volume of DMSO to generate a 10 mM or 100 mg mL^–1 (for the extracts) stock solution and diluted to generate the final testing solution with methanol. The 0.2 mM fresh DPPH methanol solution was prepared daily. The 90 μL of methanolic solution of DPPH was added to 60 μL of tested compound solution with different concentrations (or 60 μL of methanol as blank) in 96-well plates and allowed to react for 30 min at ambient temperature in the dark. The absorbance (OD) was measured at 517 nm on an Infinite M200 Pro (Tecan, Austria) microplate reader. The level of the DPPH• scavenging activity was calculated as [drawing 1] The EC50 values were calculated by using GraphPad Prism 8 software 4.6.

HepG2 cells = experiment: Hepatoprotective assay (APAP-exposed cells, cell viability); type: cell-based; conditions: tested concentration of 100 μM (method 50 μM), 20 mM APAP, Figure 3 B1
Description: HepG2 cells were seeded into 96-well tissue culture dishes at 5 × 10^3 cells/well and cultured overnight in DMEM medium supplemented with 10% FBS and 1% penicillin/streptomycin antibiotics at 37 °C in a humidified 5% CO2 incubator. The cells were then incubated with test compounds at 50 μM or extracts at 200 mg mL^–1 for 4 h before acetaminophen (APAP) exposure. After this pretreatment, the experimental group was treated with 20 mM APAP together with the compounds; the APAP-only group was treated with 20 mM neomycin and an equivalent volume of DMSO; and the control group was treated with an equivalent volume of DMSO without APAP or test compounds. After another 24 h of culture, the cell viability was then measured using the CellTiter 96 Aqueous One Solution Cell Proliferation Assay kit (Promega, USA).[12]

COX-1 = target: T2, COX-1 (Ovis aries, UniProt P05979); experiment: COX (ovine) colorimetric inhibitor screening assay, COX-1; type: biochemical; conditions: for COX-1 inhibition, in words: in comparison to acetaminophen, Figure 3 A
T2 construct: purchased Cayman 760110
T2 sequence (P05979 25-600): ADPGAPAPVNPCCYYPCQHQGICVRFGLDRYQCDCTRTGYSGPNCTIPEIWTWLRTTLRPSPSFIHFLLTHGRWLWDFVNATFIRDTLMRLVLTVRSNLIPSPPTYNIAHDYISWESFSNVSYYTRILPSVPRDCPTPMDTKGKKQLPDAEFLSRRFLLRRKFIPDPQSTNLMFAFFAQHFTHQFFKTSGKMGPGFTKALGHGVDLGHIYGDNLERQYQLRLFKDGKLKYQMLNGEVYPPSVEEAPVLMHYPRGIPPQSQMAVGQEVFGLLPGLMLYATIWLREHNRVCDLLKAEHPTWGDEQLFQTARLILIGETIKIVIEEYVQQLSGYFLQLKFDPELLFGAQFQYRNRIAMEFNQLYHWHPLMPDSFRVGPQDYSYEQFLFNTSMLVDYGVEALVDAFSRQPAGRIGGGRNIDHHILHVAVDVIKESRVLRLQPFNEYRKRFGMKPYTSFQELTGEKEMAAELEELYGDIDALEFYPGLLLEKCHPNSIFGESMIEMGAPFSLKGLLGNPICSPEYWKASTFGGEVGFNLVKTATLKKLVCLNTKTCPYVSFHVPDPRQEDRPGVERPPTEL
Description: as §1

HaCaT cells = experiment: Anti-aging bioassay (UV-B irradiation model and viability assay, MTS); type: cell-based, Human; conditions: samples 25 μM, 24 h
Description: Human HaCaT cells were cultured routinely in DMEM (high glucose) supplemented with 10% fetal bovine serum and 1% penicillin–streptomycin solution in a humidified incubator at 37 °C and 5% CO2.[19] All cells were cultured in culture dishes, and the medium was changed every day. The cells were cultured when the cell density reached 80%. Briefly, the HaCaT cells were cultured for 24 h after plating at a density of 4 × 10^4 cells/100 μL in 96-well plates. Subsequently, cells were irradiated according to the grouping using a 20 W UV–B lamp (SiTing, Shanghai, CN) at a distance of 10 cm for 5 s. The irradiation dose was calculated to be approximately 0.80 J cm^–2. Cells were divided into the following groups: control, UV–B alone, and UV–B + samples (25 μM). After UV–B irradiation, HaCaT cells continued to culture for 24 h with the medium containing compounds to be measured. The effects of those compounds on cell protection were determined by the MTS assay (BestBio, Shanghai, CN). After incubation, cells in each well were treated with 20 μL MTS solution for 1 h. The absorbance at 490 nm was measured directly with a microplate reader (FlexStation3, Molecular Devices, CA, US). Cell viability was expressed as the ratio percentage of MTS after deducting background value, assuming that the absorbance of control cells with deducting background absorbance was 100%.

[2] = pure compounds, acetaminophen positive control

| EC50 (COX-2; [2]) [µM] | EC50 (COX-1; [2]) [µM] | DPPH EC50 [1] | SMILES | free radical scavenging effect in comparison to ascorbic acid, in words [1] | EC50 [1] [µM] | hepatoprotective effect (cell viability of HepG2 cells), in words (HepG2 cells) | COX-1 inhibition, in words (COX-1) | COX-2 EC50 (COX-2; [2]) | anti-aging effect (cell viability after UV-B irradiation), in words (HaCaT cells; Figure 3 B2) | COX-1 EC50 (COX-1; [2]) | COX-2 inhibition, in words (COX-2) | anti-aging effect (cell viability after UV-B irradiation), in words (HaCaT cells; Figure 3 B2, listed as rosaroxine C) | anti-aging effect (cell viability after UV-B irradiation), in words (HaCaT cells; Figure 3 B2, listed as 2-oxo-pomolic acid) |
| --- | --- | --- | --- | --- | --- | --- | --- | --- | --- | --- | --- | --- | --- |
| 53.3 | 29 |  | Oc1cc(O)c2c(c1)OC(c1ccc(O)c(O)c1)C(O)C2 (centres unmarked) [Compound 15, catechin] | powerful free radical scavenging effects | 13.4 | no protective effects | high inhibition rates |  |  |  |  |  |  |
|  |  |  | O=C1O[C@H]([C@@H](O)CO)C(O)=C1O [Ascorbic acid, ascorbic acid, reference compound] |  | 31.3 |  |  |  |  |  |  |  |  |
|  |  |  | O=C(O)c1ccc(O)c(O)c1 [Compound 22, protocatechuic acid] | powerful free radical scavenging effects | 15.2 | no protective effects |  | no activity | most active compounds | no activity |  |  |  |
| 37.4 | 40.3 | no activity | CC1(C)C(O)C(=O)CC2(C)C1CCC1(C)C2CC=C2C3C(C(=O)O)(CCC(C(=O)O)C3(C)O)CCC21C (centres unmarked) [Compound 3, rosaroxine C] |  |  | no protective effects | significant activities; also recorded: high inhibition rates |  | most active compounds |  | significant activities; also recorded: high inhibition rates | performed well |  |
| 45 | > 100 |  | CC(=O)Nc1ccc(O)cc1 [Acetaminphen, acetaminophen, reference compound] |  |  |  |  |  |  |  |  |  |  |
| 16.6 | 28.2 | no activity | C[C@@H]1CC[C@]2(C(=O)O)CC[C@]3(C)C(=CC[C@@H]4[C@@]5(C)CC(=O)[C@H](O)C(C)(C)[C@@H]5CC[C@]43C)[C@@H]2[C@]1(C)O [Compound 5, 2-oxo-pomolic acid] |  |  | no protective effects | significant activities; also recorded: high inhibition rates |  | most active compounds |  | significant activities; also recorded: high inhibition rates |  | performed well |

| SMILES | EC50 (COX-2; [2]) [µM] | EC50 (COX-1; [2]) [µM] | DPPH EC50 [1] | free radical scavenging effect in comparison to ascorbic acid, in words [1] | EC50 [1] [µM] | hepatoprotective effect (cell viability of HepG2 cells), in words (HepG2 cells) | COX-1 inhibition, in words (COX-1) | COX-2 EC50 (COX-2; [2]) | anti-aging effect (cell viability after UV-B irradiation), in words (HaCaT cells; Figure 3 B2) | COX-1 EC50 (COX-1; [2]) | COX-2 inhibition, in words (COX-2) | anti-aging effect (cell viability after UV-B irradiation), in words (HaCaT cells; Figure 3 B2, listed as rosaroxine C) | anti-aging effect (cell viability after UV-B irradiation), in words (HaCaT cells; Figure 3 B2, listed as 2-oxo-pomolic acid) |
| --- | --- | --- | --- | --- | --- | --- | --- | --- | --- | --- | --- | --- | --- |
| O=c1c(O)c(-c2ccc(O)c(O)c2)oc2cc(O)cc(O)c12 [Compound 16, quercetin] | 18.8 | 33.1 |  | powerful free radical scavenging effects | 13.1 | no protective effects | high inhibition rates |  |  |  | high inhibition rates |  |  |
| O=C(O)c1cc(O)c(O)c(O)c1 [Compound 21, gallic acid] | 26.3 | 40 |  | powerful free radical scavenging effects | 10 |  | high inhibition rates |  |  |  | high inhibition rates |  |  |
